SMILES strings stand for the structures.

We go through four compounds from patent publication US10159670B2, “Methods of diagnosing and treating motor neuron diseases and other cellular stress-related diseases” (priority 2012, dated 2018).

Format in all cases: cell-based
Test [1] concerns mouse embryonic fibroblasts (MEFs). In words: pre-miRNA and miRNA levels in mouse embryonic fibroblasts under stress. The protocol: (§1) (FIG. 7A) miRNA expression level analysis in the motor neuron cell line NSC-34, treated with 6.25 nM Thapsigargin for 24 hrs, relative to cells treated with carrier alone (DMSO). Shown are average and s.d. of qPCR analyses of 3 independent experiments. Pre-miRNAs (light grey, normalized to Gapdh) and miRNAs (dark grey, normalized to Snord68). (FIG. 7B) mRNA levels encoding for proteins involved in the canonical stress response, normalized to the expression of beta-actin. (FIG. 7C) miRNA expression level analysis in mouse embryonic motor neurons, treated with 5 nM Thapsigargin for 72 hrs, relative to cells treated with carrier alone (DMSO). Shown are average and s.d. of qPCR analyses of three independent experiments. Pre-miRNAs (light grey, normalized to Gapdh and beta actin) and miRNAs (dark grey, normalized to Snord70). (FIG. 7D) mRNA markers of the canonical stress response, normalized to the expression of beta-actin. miRNA expression level analysis in NSC-34 cells, treated with Paraquat (PQ) (1 mM, 12 hrs, FIG. 7E) and sodium arsenite (0.5 mM, 60 min, FIG. 7F). pre-miRNA normalized to beta-actin mRNA (FIGS. 7E-F) and miRNAs to 5S (FIG. 7E) or to U6 and 5S (FIG. 7F). (FIGS. 7G-I) miRNA expression level analysis in mouse embryonic Wild-type fibroblasts (light grey) or phospho-mutant eIF2a S51A cells (black) treated with Thapsigargin (5 nM, 72 hrs) relative to carrier alone. Pre-miRNA (FIG. 7G) and mature miRNA (FIG. 7H) levels normalized to Gapdh and Snord68, respectively. (FIG. 7I) ATF4, which is induced by phosphorylation of eIF2a, was not induced in phospho-mutant eIF2a S51A cells. Significance of p-values from ANOVA tests is indicated by *p<0.05; **p<0.01. (FIGS. 7J-K) Western-Blot analysis of lysates from untreated NSC-34 cells (control) or cells treated with sodium arsenite (0.5 mM, 60 min). Phospho-specific immunodetection of eIF2a S51 phosphorylation (peIF2a) and total eIF2a levels (FIG. 7J), Dicer and Ago2 levels (FIG. 7K). (FIG. 7L) miRNA expression level analysis in mouse embryonic fibroblasts treated with Puromycin (1 μg/ml, 24 hrs), relative to cells treated with carrier alone (water). Pre-miRNAs (light grey, normalized to Gapdh) and miRNAs (dark grey, normalized to Snord68).
(FIG. 9A) The ratio of pre-miRNA to mature miRNA levels in NSC-34 cells, transfected with plasmids as indicated and in cells treated for 72 hrs with carrier alone (water, black) or with cycloheximide (CHX, 0.02 μg/ml, gray). Data normalized to control plasmid transfection. Pre-miRNAs further normalized to Gapdh (for FUS R495X, TDP-43 A315T) or to beta-actin (SOD1 G93A) and miRNA levels normalized to Snord68. Average of three independent experiments except for pre-miRNAs in the study of FUS R495X (n=2). Targeted quantitative mass spectrometry analysis of changes in the binding of Ago2 or Dicer to a set of proteins interactors under stress (FIGS. 9B-E). Immunoprecipitated Ago2-Flag (FIG. 9B) or Dicer-Flag (FIG. 9C) from HEK 293 cells, cultured under basal conditions or treated with sodium arsenite (0.5 mM, 60 min) was subjected to targeted mass-spectrometry analysis. Data is averaged from two or three different peptide standards per protein and normalized to the levels of co-immunoprecipiated peptides from untreated cells. Statistically significant result in a student t-test, between arsenite and control treatment is denoted (*p<0.05). Targeted mass spectrometry of (FIG. 9D) Dicer cofactors or (FIG. 9E) SG components, immunoprecipitated with AGO-Flag in FUS R495X-expressing HEK 293 that were further treated for 72 hrs with carrier alone or Cycloheximide (0.02 μg/ml). (FIG. 9F) The ratio of pre-miRNA to mature miRNA levels in mouse embryonic fibroblasts, pretreated for 5 hrs with HSP90 inhibitors (17-AAG, 1 μM or Geldanamycin, 1 μM) and then incubated for 36 more hours with Thapsigargin (5 nM) in combinations with the respective HSP90 inhibitor. […]

The subject of test [2] is mouse embryonic motor neurons. In words: Stress-induced change of miRNA biogenesis in primary mouse motor neurons. The note with it: 5 nM, 72 hrs. The protocol:
(FIG. 7A) miRNA expression level analysis in the motor neuron cell line NSC-34, treated with 6.25 nM Thapsigargin for 24 hrs, relative to cells treated with carrier alone (DMSO). Shown are average and s.d. of qPCR analyses of 3 independent experiments. Pre-miRNAs (light grey, normalized to Gapdh) and miRNAs (dark grey, normalized to Snord68). (FIG. 7B) mRNA levels encoding for proteins involved in the canonical stress response, normalized to the expression of beta-actin. (FIG. 7C) miRNA expression level analysis in mouse embryonic motor neurons, treated with 5 nM Thapsigargin for 72 hrs, relative to cells treated with carrier alone (DMSO). Shown are average and s.d. of qPCR analyses of three independent experiments. Pre-miRNAs (light grey, normalized to Gapdh and beta actin) and miRNAs (dark grey, normalized to Snord70). (FIG. 7D) mRNA markers of the canonical stress response, normalized to the expression of beta-actin. miRNA expression level analysis in NSC-34 cells, treated with Paraquat (PQ) (1 mM, 12 hrs, FIG. 7E) and sodium arsenite (0.5 mM, 60 min, FIG. 7F). pre-miRNA normalized to beta-actin mRNA (FIGS. 7E-F) and miRNAs to 5S (FIG. 7E) or to U6 and 5S (FIG. 7F). (FIGS. 7G-I) miRNA expression level analysis in mouse embryonic Wild-type fibroblasts (light grey) or phospho-mutant eIF2a S51A cells (black) treated with Thapsigargin (5 nM, 72 hrs) relative to carrier alone. […]

Test [3] has as its system NSC-34 cells. The experiment in a line: Stress-induced change of pre-miRNA processing in NSC-34 cells (qPCR). As to the method:
as §1
RNA was extracted using Tri reagent (Molecular Research Center Inc.) or Qiazol with consecutive use of the miRNeasy Mini Kit (Qiagen). Pre-miRNA and miRNA reverse transcription was performed using miScript Kits No. I & II (Qiagen). Quantitative analysis of miRNA and pre-miRNA expression performed in more than 3 independent biological repeats and additionally in technical duplicates with StepOnePlus quantitative Real-Time PCR System and 2-sided ANOVA-test performed with DataAssist Software (Life technologies Inc.). Next-generation sequencing of mouse precursor miRNAs and mature miRNAs was performed on two independent experimental repeats, as described in Newman et al. [Newman et al. (2011) RNA 17(10): 1795-1803]. miRNAs were normalized to spiked-in controls and pre-miRNAs were normalized to Snord72 and Snord95.
Stress and cytoplasmic stress granules (SGs) emerge as major pathogenic mechanisms of ALS [Kim et al. (2014) Nat Genet 46(2): 152-160]. Stress pathways are thought to control miRNA activity [Etude and Hornstein, EMBO J. (2014) July 1; 33(13):1428-37], but the idea that cellular stress might broadly regulate miRNA biogenesis was not yet tested. This hypothesis was tested herein by measurement of the relative expression levels of mature miRNAs and their precursors, pre-miRNAs, which provides a proxy for the efficacy of Dicer complex activity. […] Two other chemicals were tested that drive oxidative stress, namely Paraquat (PQ, 12 hrs, 1 mM) and sodium arsenite (1 hr, 0.5 mM). […] Therefore, several different cellular stress pathways negatively regulate miRNA biogenesis.
In general terms: Quantitative PCR measures a nucleic acid by following its amplification.

With `C=CCNC1=C2C[C@@H](C)C[C@H](OC)[C@H](O)[C@@H](C)/C=C(\C)[C@H](OC(N)=O)[C@@H](OC)/C=C\C=C(/C)C(=O)NC(=CC1=O)C2=O` [17-AAG], in test [1] (HSP90 inhibitor 1 μM, 5 hrs pretreatment, then 36 hrs with Thapsigargin 5 nM), the “Thapsigargin-induced inhibition of miRNA biogenesis (ratio of pre-miRNA to mature miRNA)” value is “aggravated Thapsigargin-induced inhibition of miRNA biogenesis”.

For the compound `C/C=C(/C)C(=O)O[C@H]1C(C)=C2[C@H]([C@@H]1OC(=O)CCCCCCC)[C@@](C)(OC(C)=O)C[C@H](OC(=O)CCC)[C@@]1(O)[C@H]2OC(=O)[C@@]1(C)O` [Thapsigargin], in test [1] (eIF2a S51A MEFs, 5 nM, 72 hrs), the “ATF4 mRNA levels” value was “failed to upregulate ATF4 mRNA levels”; the “Dicer inhibition (pre-miRNA and mature miRNA levels)” value is “partial recovery from Thapsigargin-induced Dicer inhibition”. Further, in test [1] (wild-type MEFs, 5 nM, 72 hrs), the “mature miRNA species” value was “relative depletion of the corresponding mature miRNA species” and the pre-miRNAs entry was “accumulation of pre-miRNAs”. In test [2], the “markers of ER-stress” value is listed as “up-regulated markers of ER-stress” and the miRNA biogenesis entry is given as “affected miRNA biogenesis”. Also, in test [3] (6.25 nM, 24 hrs), the “RNA markers of ER-stress: ASNS, ATF4, CHOP and GRP78” value is “up-regulation of RNA markers of ER-stress”; the “mature miRNAs levels” value is given as “down-regulate mature miRNAs levels”; the miRNA precursors levels entry is reported as “up-regulate miRNA precursors levels”.

As for `C[n+]1ccc(-c2cc[n+](C)cc2)cc1` [Paraquat], in test [3] (PQ, 12 hrs, 1 mM), the “mature miRNAs” value is “down-regulation of mature miRNAs” and the pre-miRNA levels entry is on record as “up-regulation of pre-miRNA levels”.

Take `COc1ccc(C[C@H](N)C(=O)N[C@H]2[C@@H](O)[C@H](n3cnc4c(N(C)C)ncnc43)O[C@@H]2CO)cc1` [Puromycin]: the “efficacy of pre-miRNA biogenesis” value in test [1] (1 μg/ml, 24 hrs) is on record as “decreased the efficacy of pre-miRNA biogenesis”.
